Data reported in the supplement of paper PMC11208160.

Assay: recombinant UMI read abundance after kanamycin selection (control-corrected) (log10(CPM+1)); higher = more efficient recombination; extreme values may be limits of the assay; sequences stand for … in AGTGCAGAGAAAATCGGCCAGTTTTCTCTGCCTGCAGTCCGCATGCCGTGGGACCCCTTGGGTTCTAACCTGTTGCCTAGATTTATGCAGCGGACTGCCTTTCTCCCAAAGTGATAAACCGG…AGGTTGGTTTCACT; site = the 11-nt donor
Method in brief: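 Values, expressed as log10(CPM+1), derive from recombinant UMI counts converted to CPM, averaged across replicates and scaled by control-derived factors. Plating was with IPTG (0.07 mM) plus kanamycin or unselected, two replicates each. The screen pooled donor and donor-binding-loop pairs for the IS621 bridge recombinase in Escherichia coli.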
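Note: IS621 bridge recombinase in Escherichia coli cells against a fixed T5 target plasmid.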

Sequence | recombinant UMI read abundance (log10)
AGGTTCCCATGGACCGGTTTTCCCGGTAATCCGTATTTGCG (site AGGTTCCCTCA) | 0.0159
AGGTTCCCATGGACCGGTTTTCCCGGTAATCCGTATTTGCG (site AGGTTCCCTCC) | 0.0204
AGGTTCCCATGGACCGGTTTTCCCGGTAATCCGTATTTGCG (site AGGTTCCCTCG) | 0.236
AGGTTCCCATGGACCGGTTTTCCCGGTAATCCGTATTTGCG (site AGGTTCCCTCT) | 0.00665
AGGTTCCCATGGACCGGTTTTCCCGGTAATCCGTATTTGGT (site AGGTTCCCTAC) | 0.474
AGGTTCTCATGGACCGGTTTTCCCGGTAATCCGTATTTGTG (site AGGTTCACTCA) | 0.205
AGGTTCTCATGGACCGGTTTTCCCGGTAATCCGTATTTGTG (site AGGTTCCCTCA) | 0.22
AGGTTCTCATGGACCGGTTTTCCCGGTAATCCGTATTTGTG (site AGGTTCGCTCA) | 0.0171
AGGTTCTCATGGACCGGTTTTCCCGGTAATCCGTATTTGTG (site AGGTTCTCTCA) | 2.32
AGGTTTCCATGGACCGGTTTTCCCGGTAATCCGTATTTGTG (site AGGTTACCTCA) | 0.0337
AGGTTTCCATGGACCGGTTTTCCCGGTAATCCGTATTTGTG (site AGGTTCCCTCA) | 0.192
AGGTTTCCATGGACCGGTTTTCCCGGTAATCCGTATTTGTG (site AGGTTGCCTCA) | 0.00446
AGGTTTCCATGGACCGGTTTTCCCGGTAATCCGTATTTGTG (site AGGTTTCCTCA) | 0.271
AGTAACGCATGGACCGGTTTTCCCGGTAATCCGTATTTGGG (site AGTAACGCTCC) | 0.161
AGTAAGACATGGACCGGTTTTCCCGGTAATCCGTATTTGAG (site AGTAAGACTCT) | 1.72
AGTAAGACATGGACCGGTTTTCCCGGTAATCCGTATTTGCA (site AGAAAGACTTG) | 1.66
AGTAAGACATGGACCGGTTTTCCCGGTAATCCGTATTTGCA (site AGCAAGACTTG) | 2.39
AGTAAGACATGGACCGGTTTTCCCGGTAATCCGTATTTGCA (site AGGAAGACTTG) | 1.31
AGTAAGACATGGACCGGTTTTCCCGGTAATCCGTATTTGCA (site AGTAAGACTTG) | 2.57
AGTAAGACATGGACCGGTTTTCCCGGTAATCCGTATTTGCC (site AGGAAGACTTG) | 0.00684
AGTAAGACATGGACCGGTTTTCCCGGTAATCCGTATTTGCC (site AGTAAGACTGG) | 2.13
AGTAATCCATGGACCGGTTTTCCCGGTAATCCGTATTTGGT (site AGTAATCCTAC) | 0.00506
AGTACAGCATGGACCGGTTTTCCCGGTAATCCGTATTTGCC (site AGTACAGCTGG) | 2.27
AGTACTACATGGACCGGTTTTCCCGGTAATCCGTATTTGAC (site AGAACTACTGT) | 0.731
AGTACTACATGGACCGGTTTTCCCGGTAATCCGTATTTGAC (site AGCACTACTGT) | 0

Sequence | recombinant UMI read abundance (log10)
AGTACTACATGGACCGGTTTTCCCGGTAATCCGTATTTGAC (site AGGACTACTGT) | 1.71
AGTACTACATGGACCGGTTTTCCCGGTAATCCGTATTTGAC (site AGTACTACTGT) | 1.28
AGTACTGCATGGACCGGTTTTCCCGGTAATCCGTATTTGGT (site AGTACTGCTAC) | 0.745
AGTAGAACATGGACCGGTTTTCCCGGTAATCCGTATTTGAG (site AATAGAACTCT) | 0.806
AGTAGAACATGGACCGGTTTTCCCGGTAATCCGTATTTGAG (site ACTAGAACTCT) | 0.901
AGTAGAACATGGACCGGTTTTCCCGGTAATCCGTATTTGAG (site AGTAGAACTCT) | 1.24
AGTAGAACATGGACCGGTTTTCCCGGTAATCCGTATTTGAG (site ATTAGAACTCT) | 0.418
AGTAGCTCATGGACCGGTTTTCCCGGTAATCCGTATTTGGC (site AGTAGCTCTGC) | 2.79
AGTAGTACATGGACCGGTTTTCCCGGTAATCCGTATTTGGT (site AGTAGTACTAC) | 0.706
AGTAGTGCATGGACCGGTTTTCCCGGTAATCCGTATTTGGT (site AATAGTGCTAC) | 0.246
AGTAGTGCATGGACCGGTTTTCCCGGTAATCCGTATTTGGT (site ACTAGTGCTAC) | 0.699
AGTAGTGCATGGACCGGTTTTCCCGGTAATCCGTATTTGGT (site AGTAGTGCTAC) | 1.3
AGTAGTGCATGGACCGGTTTTCCCGGTAATCCGTATTTGGT (site ATTAGTGCTAC) | 0.00696
AGTATTTCATGGACCGGTTTTCCCGGTAATCCGTATTTGAG (site AGTATTTCTCT) | 1.39
AGTCAGACATGGACCGGTTTTCCCGGTAATCCGTATTTGGC (site AGTCAGACTGC) | 2.34
AGTCCGACATGGACCGGTTTTCCCGGTAATCCGTATTTGTC (site AGTCCGACTGA) | 0.624
AGTCGTACATGGACCGGTTTTCCCGGTAATCCGTATTTGGA (site AGTCGTACTTC) | 0.529
AGTCTGGCATGGACCGGTTTTCCCGGTAATCCGTATTTGAA (site AGTCTGGCTTT) | 1.19
AGTCTTACATGGACCGGTTTTCCCGGTAATCCGTATTTGGT (site AGTCTTACTAC) | 1.14
AGTGCCGCATGGACCGGTTTTCCCGGTAATCCGTATTTGGG (site AGTGCCGCTCC) | 0.025
AGTGTAACATGGACCGGTTTTCCCGGTAATCCGTATTTGCT (site AATGTAACTAG) | 1.36
AGTGTAACATGGACCGGTTTTCCCGGTAATCCGTATTTGCT (site ACTGTAACTAG) | 1.47
AGTGTAACATGGACCGGTTTTCCCGGTAATCCGTATTTGCT (site AGTGTAACTAG) | 1.94
AGTGTAACATGGACCGGTTTTCCCGGTAATCCGTATTTGCT (site ATTGTAACTAG) | 1.12
AGTGTCTCATGGACCGGTTTTCCCGGTAATCCGTATTTGAG (site AGTGTCTCTCT) | 1.2

Sequence | recombinant UMI read abundance (log10)
AGTTAGGCATGGACCGGTTTTCCCGGTAATCCGTATTTGGA (site AGTTAGGCTTC) | 0.957
AGTTCAGCATGGACCGGTTTTCCCGGTAATCCGTATTTGAT (site AGTTCAGCTAT) | 1.05
AGTTCCTCATGGACCGGTTTTCCCGGTAATCCGTATTTGCA (site AGTTCCTCTTG) | 2.47
AGTTCGACATGGACCGGTTTTCCCGGTAATCCGTATTTGAC (site AGTTCGACTGT) | 0.845
AGTTGATCATGGACCGGTTTTCCCGGTAATCCGTATTTGAC (site AGTTGATCTGT) | 1.28
AGTTGCTCATGGACCGGTTTTCCCGGTAATCCGTATTTGAA (site AGTTGCTCTTT) | 0.47
AGTTGGCCATGGACCGGTTTTCCCGGTAATCCGTATTTGGG (site AGTTGGCCTCC) | 0.0248
AGTTGTTCATGGACCGGTTTTCCCGGTAATCCGTATTTGTT (site AGTTGTTCTAA) | 0.233
AGTTTCCCATGGACCGGTTTTCCCGGTAATCCGTATTTGTG (site AGATTCCCTCA) | 0.0216
AGTTTCCCATGGACCGGTTTTCCCGGTAATCCGTATTTGTG (site AGCTTCCCTCA) | 0.0227
AGTTTCCCATGGACCGGTTTTCCCGGTAATCCGTATTTGTG (site AGGTTCCCTCA) | 0.0056
AGTTTCCCATGGACCGGTTTTCCCGGTAATCCGTATTTGTG (site AGTTTCCCTCA) | 0.0252
AGTTTGCCATGGACCGGTTTTCCCGGTAATCCGTATTTGAA (site AGTTTGCCTTT) | 0.00758
ATAAACCCATGGACCGGTTTTCCCGGTAATCCGTATTTGAT (site ATAAACCCTAT) | 1.19
ATAAACTCATGGACCGGTTTTCCCGGTAATCCGTATTTGCG (site ATAAACTCTCG) | 3.23
ATAAAGGCATGGACCGGTTTTCCCGGTAATCCGTATTTGCT (site AAAAAGGCTAG) | 0.238
ATAAAGGCATGGACCGGTTTTCCCGGTAATCCGTATTTGCT (site ACAAAGGCTAG) | 1.63
ATAAAGGCATGGACCGGTTTTCCCGGTAATCCGTATTTGCT (site AGAAAGGCTAG) | 0.349
ATAAAGGCATGGACCGGTTTTCCCGGTAATCCGTATTTGCT (site ATAAAGGCTAG) | 2.75
ATAACGCCATGGACCGGTTTTCCCGGTAATCCGTATTTGAG (site ATAACGCCTCT) | 0.00694
ATAACGCCATGGACCGGTTTTCCCGGTAATCCGTATTTGTC (site ATAACGCCTGA) | 1.58
ATAAGGCCATGGACCGGTTTTCCCGGTAATCCGTATTTGAA (site ATAAGGCCTAT) | 0.00331
ATAAGGCCATGGACCGGTTTTCCCGGTAATCCGTATTTGAA (site ATAAGGCCTCT) | 0.0201
ATAAGGCCATGGACCGGTTTTCCCGGTAATCCGTATTTGAA (site ATAAGGCCTGT) | 0
ATAAGGCCATGGACCGGTTTTCCCGGTAATCCGTATTTGAA (site ATAAGGCCTTT) | 0.404
